Values after ≈ are worked out from the molar mass of the structure shown.
How the values were obtained:
melanoma cells = experiment: MTT assay for cell number; assay type: cell-based; conditions: for IC50: read-out: MTT assay IC50; for minimal effective concentration: 48 h, Table II, read-out: Minimum Effective Concentration, MTT assay
Description: In Table V, several aminosterol esters show efficacy in killing melanoma cells in the MTT assay.
The MTT assay for cell number is performed as follows. Cells are counted on a hemocytometer and diluted to a concentration of approx. 10,000 cells/well (55,000 cells/ml×0.18 ml). Cells are then plated in a 96 well microtiter plate and allowed to attach overnight. The next day, compounds are serially diluted from 1000 to 15.6 μg/ml and run in duplicate. 20 μl of each dilution are transferred to the pre-seeded microtiter plates. The final concentrations are 100 to 1.56 μg/ml. The plates are then incubated for 48 hours at 37° C. in 5% CO2. After 48 hours, MTT solution is added. The plate is re-incubated for 4 hours. Readings are done by removing all but 30 μl of media and MTT solution and dissolving the formazan crystals with DMSO. The formazan is dissolved by mixing on a rotating plate at low speed for about 30 minutes. Absorbance of converted dye is measured at a wavelength of 560 nm with background subtraction at 630 nm. The percent survival is determined by a comparison between the mean absorbance of the duplicate test lanes and the growth control.

[1] = tested on: Xenopus laevis Stages 59-60 tadpoles; experiment: tadpole assay; assay type: in vivo; conditions: 10 μg/ml where stated
[2] = tested on: chick embryo vitelline capillaries; experiment: chick embryo vitelline capillary regression assay; assay type: in vivo; design: key to Chick embryo vitelline capillary regression: +: Vascular reactivity; 0: No vascular reactivity; +/-: Equivocal reactivity; conditions: for Chick embryo vitelline capillary regression: 60 minutes
Description: Using the chick embryo vitelline capillaries assay, various aminosterol compounds were tested for their ability to induce capillary regression. Each compound was applied in 0.1 ml of 15% Ficol 400 and PBS onto the embryo, and vascular regression was assessed after 60 minutes. These tests were conducted by the chorioallantoic membrane anti-angiogenesis assay by applying the material to be assayed to 3 day old fertilized chick embryos in the manner described by Wilks et al., "Inhibition of Angiogenesis With Combination Angiostatic Steroids and Suramin," Radiation Biology, Vol. 60, Nos. 1/2, 1991, pp. 73-77, which article is entirely incorporated herein by reference.
The 3-day chick embryo consists of an embryonic disc from which numerous vessels emerge and return, forming a "figure 8"-shaped structure--the embryo in the center with vascular loops extending outward over both poles. […] Following a lag period of around 15 minutes, the constriction of continuity between capillary and secondary vessels, generally on the "venous" side, was observed. Continued pulsatile blood flow progressed, resulting in a "swelling" of the blind tube, followed by a pinching off of the remaining connection and formation of an enclosed vascular sac resembling a "blood island." This process progressed until only the largest vessels remained intact.

P. aerug = experiment: antibiotic activity, P. aerug; assay type: cell-based
[3] = inhibition of MSI-1436 binding; conditions: 3H-MSI-1436 at 20 μg/mL
splenocytes = experiment: mitogen proliferation assay (splenocytes of treated mice, Con A); assay type: in vivo; conditions: 10 mg/kg iv
Description: For the attached Tables, the mitogen proliferation assay was performed by treating mice (male or female) with various amounts of the aminosterol test compounds. Some time later (typically between 2 hours and 14 days), the mice are sacrificed and their spleens removed. Splenocytes are harvested and cultured in the presence of between 1-10 μg/ml of Con A (Sigma) for 48 hours. See James Morgan, "Monoclonal Antibody Production," Modern Methods in Pharmacology, pp. 29-67, eds., Spector and Back, 1988. This excerpt is entirely incorporated herein by reference. Cell proliferation is monitored either by direct cell counting or by measurement of the incorporation of radioactive thymidine.

S. aureus = experiment: antibiotic activity, S. aureus; assay type: cell-based; conditions: Staphylococcus aureus

With `COC(=O)CCC(C)[C@H]1CCC2C3C[C@@H](O)[C@H]4C[C@@H](NCCN)CC[C@]4(C)C3CC[C@@]21C` (some centres unmarked) the IC50 (melanoma cells; Tables III-V) was 0.8 µg/mL (≈ 1.78 µM).

In the case of `COC(=O)CC[C@@H](C)[C@H]1CC[C@H]2[C@@H]3CC[C@@H]4C[C@H](NCCN)CC[C@]4(C)[C@H]3C[C@H](O)[C@]12C` [Compound 416], the “effect on embryonic epithelium / epithelial shedding (in words)” value [1] is reported as “functionally similar to compound 1437”.

`CC(CCC(=O)O)[C@H]1CCC2C3C(CC[C@@]21C)[C@@]1(C)CC[C@H](NCCCNCCCCNCCCN)C[C@H]1C[C@H]3O` (some centres unmarked) [drawing 86] showed a minimal effective concentration (melanoma cells) of 18.1 µg/mL.

In the case of `C[C@H](CCC(=O)O)[C@H]1CC[C@H]2[C@@H]3CC[C@H]4C[C@H](NCCCNCCCCN)CC[C@]4(C)[C@H]3CC[C@]12C` [Compound 318], the “Chick embryo vitelline capillary regression” value ([2]; 1 μg applied) is reported as 0.

Compound `COC(=O)CCC(C)[C@H]1CCC2C3CC[C@H]4C[C@@H](NCCCNCCCCNCCCN)CC[C@]4(C)C3CC[C@@]21C` (some centres unmarked) [drawing 75] has a minimal effective concentration (melanoma cells) of 5 µg/mL.

`CC(CCC(=O)O)[C@H]1CCC2C3C(CC[C@@]21C)[C@@]1(C)CC[C@@H](NCCCNCCCCN)C[C@@H]1C[C@H]3O` (some centres unmarked) showed a minimal effective concentration (melanoma cells) of 58.6 µg/mL.

Work on `COC(=O)CCC(C)[C@H]1CCC2C3C(CC[C@@]21C)[C@@]1(C)CC[C@@H](NCCN)C[C@H]1C[C@H]3O` (some centres unmarked) [drawing 40] yielded an MIC (P. aerug) of 32 µg/mL (≈ 71.3 µM).

In the case of `COC(=O)CCC(C)[C@H]1CCC2C3CC[C@H]4C[C@@H](NCCCNCCCCNCCCN)CC[C@]4(C)C3CC[C@@]21C` (some centres unmarked) [drawing 103], the “% Inhib. of MSI-1436 Binding @ 100 μg/mL” value [3] is reported as -24%, the “MTT assay IC50” value (melanoma cells; Tables III-V) is reported as 4 µg/mL and the IC50 (melanoma cells; Tables III-V) is reported as 5 µg/mL (≈ 8.7 µM). The “Rel. potency to MSI-1436, Mitogen Proliferation Assay” value (splenocytes) was 0.73.

With `C[C@H](CCC(=O)O)[C@H]1CC[C@H]2[C@@H]3CC[C@H]4C[C@@H](NCCCNCCCCN)CC[C@]4(C)[C@H]3CC[C@]12C` [Compound 319] the “Chick embryo vitelline capillary regression” value ([2]; 0.001 μg applied) was “+/-”, the “Chick embryo vitelline capillary regression” value ([2]; 0.01 μg applied) was “+” and the “Chick embryo vitelline capillary regression” value ([2]; 0.1 μg applied) was “+”. The “Chick embryo vitelline capillary regression” value ([2]; 1 μg applied) was “+”, the “Chick embryo vitelline capillary regression” value ([2]; 10 μg applied) was “+” and the “effect on vitelline capillaries (in words)” value ([2]; 3- to 5-day chick embryo) was “especially active”. For the same compound, the “vascular effect in tadpole (in words)” value ([1]; about 60 minutes) was “common vascular occlusive effect”.

Compound `CC(CCC(=O)O)[C@H]1CCC2C3C(CC[C@@]21C)[C@@]1(C)CC[C@H](NCCCNCCCCNCCCN)C[C@H]1C[C@H]3O` (some centres unmarked) [drawing 43] has an MIC (P. aerug) of 64 µg/mL (≈ 111 µM).

For `COC(=O)CCC(C)[C@H]1CCC2C3C(CC[C@@]21C)[C@@]1(C)CC[C@H](NCCCNCCCCNCCCN)C[C@H]1C[C@H]3O` (some centres unmarked), the “% Inhib. of MSI-1436 Binding @ 100 μg/mL” value [3] was 19% and the IC50 (melanoma cells; Tables III-V) was 7.9 µg/mL (≈ 13.4 µM).

In the case of `COC(=O)CC[C@@H](C)[C@H]1CC[C@H]2[C@@H]3C[C@@H](O)[C@H]4C[C@H](NCCN)CC[C@]4(C)[C@H]3CC[C@]12C` [Compound 431], the “effect on embryonic epithelium / epithelial shedding (in words)” value [1] is reported as “functionally similar to compound 1437”.

Compound `COC(=O)CCC(C)[C@H]1CCC2C3C[C@@H](O)[C@H]4C[C@H](NCCN)CC[C@]4(C)C3CC[C@@]21C` (some centres unmarked) has an IC50 (melanoma cells; Tables III-V) of 2.9 µg/mL (≈ 6.46 µM).

For `COC(=O)CCC(C)[C@H]1CCC2C3C(CC[C@@]21C)[C@@]1(C)CC[C@H](NCCCNCCCCNCCCN)C[C@@H]1C[C@H]3O` (some centres unmarked) [drawing 115], the “% Inhib. of MSI-1436 Binding @ 100 μg/mL” value [3] was 32% and the IC50 (melanoma cells; Tables III-V) was 8.1 µg/mL (≈ 13.7 µM).

In the case of `COC(=O)CCC(C)[C@H]1CCC2C3C(CC[C@@]21C)[C@@]1(C)CC[C@H](NCCN)C[C@H]1C[C@H]3O` (some centres unmarked), the IC50 (melanoma cells; Tables III-V) is reported as 5.3 µg/mL (≈ 11.8 µM).

For `COC(=O)CCC(C)[C@H]1CCC2C3C(CC[C@@]21C)[C@@]1(C)CC[C@@H](NCCCNCCCCNCCCN)C[C@@H]1C[C@H]3O` (some centres unmarked), the “% Inhib. of MSI-1436 Binding @ 100 μg/mL” value [3] was 15% and the IC50 (melanoma cells; Tables III-V) was 7.8 µg/mL (≈ 13.2 µM).

`COC(=O)CCC(C)[C@H]1CCC2C3CC[C@H]4C[C@H](NCCCNCCCCNCCCN)CC[C@]4(C)C3CC[C@@]21C` (some centres unmarked) [drawing 55] showed an MIC (S. aureus) of 4 µg/mL (≈ 6.96 µM).
